Paper PMC9656482, “In Vitro and In Vivo Biological Activity of Ruthenium 1,10-Phenanthroline-5,6-dione Arene Complexes” (International Journal of Molecular Sciences, 2022)

Experiments:
[1] = test system: HCT116 colorectal carcinoma cell line; experiment: MTS antiproliferative assay, HCT116; assay type: cell-based, human; conditions: 48 h incubation, MTS; read-out: Relative IC50, HCT116
Experimental: (§3) Normal dermal human fibroblasts, colorectal carcinoma cell line HCT116 and ovarian carcinoma cell line A2780 were acquired from ATCC (Manassas, VA, USA). […] Fibroblasts and HCT116 cells were cultured in Dulbecco’s modified Eagle medium (DMEM, Thermo Fisher Scientific) and A2780 cell line was cultured on Roswell Park Memorial institute 1640 (RPMI-1640, Thermo Fisher Scientific). Both media were supplemented with 10% (v/v) fetal bovine serum (FBS, Thermo Fisher Scientific) and a mixture of 100 U/mL penicillin and 100 mg/mL streptomycin. The supplemented media are referred to from this point on as DMEM or RPMI for simplicity. […] All experiments underwent at 37 °C, 5% (v/v) CO2 and 99% (v/v) humidity in the dark.
(§4) Cells were seeded in a 96-well plate in a density of 7500 cells/well, and after 24 h was submitted to a concentration range between 0.1–50 µM of complexes JHOR10 and JHOR11. DMSO with a 0.1% (v/v) concentration was used as vector control and cisplatin was used as positive control in all replicates. After 48 h incubation, cellular viability was inferred with the Cell Titer 96® Aqueous One solution cell proliferation assay (Promega, Madison, WI, USA) according to the manufacturer’s instructions and procedures previously described [18, 40]. The absorbance of the produced Formazan was quantified with a Tecan microplate reader, Infinite M200 (Tecan, Mannedorf, Switzerland) and the analysis of the dose–response curves to determine the relative IC50 was performed with GraphPad Prism 8.2.1 software (GraphPad Software, La Jolla, CA, USA).

[2] = test system: A2780 ovarian carcinoma cell line; experiment: MTS antiproliferative assay, A2780; assay type: cell-based, human; conditions: 48 h incubation, MTS; read-out: Relative IC50, A2780
Experimental: as §3, §4

[3] = test system: doxorubicin-resistant HCT116 (HCT116-Dox); conditions: read-out: Relative IC50, HCT116-Dox; 48 h incubation, MTS
Experimental: (§1) The cytotoxic potential of the complexes was evaluated by assessing their viability using the 3-(4,5-dimethylthiazol-2-yl)-5-(3-carboxymethoxyphenyl)-2-(4-sulfophenyl)-2H tetrazolium, inner salt (MTS) colorimetric assay in three tumor cell lines—ovarian carcinoma, A2780, colorectal carcinoma, HCT116, and colorectal carcinoma resistant to doxorubicin, HCT116-Dox and in normal human primary dermal fibroblasts (Figure 1 and Figure S7).
(§2) Normal dermal human fibroblasts, colorectal carcinoma cell line HCT116 and ovarian carcinoma cell line A2780 were acquired from ATCC (Manassas, VA, USA). HCT116 cell lines resistant to doxorubicin (HCT116-Dox) were derived from the HCT116 cell line, as previously described. Fibroblasts and HCT116 cells were cultured in Dulbecco’s modified Eagle medium (DMEM, Thermo Fisher Scientific) and A2780 cell line was cultured on Roswell Park Memorial institute 1640 (RPMI-1640, Thermo Fisher Scientific). Both media were supplemented with 10% (v/v) fetal bovine serum (FBS, Thermo Fisher Scientific) and a mixture of 100 U/mL penicillin and […] streptomycin. The supplemented media are referred to from this point on as DMEM or RPMI for simplicity.

[4] = test system: normal human dermal fibroblasts; conditions: read-out: Relative IC50, Fibroblasts; 48 h incubation, MTS
Experimental: as §1, §2

zebrafish embryos = experiment: In vivo toxicity assessment using zebrafish embryos; conditions: zebrafish embryos exposed from 72 hpf, 96 h
Experimental: The toxicity of the JHOR10 and JHOR11 compounds was assayed in zebrafish embryos. There was a NOEC (No Observed Effect Concentration) in the case of JHOR11 of 80 µM (Table 2). The NOEC is the concentration used for the xenotransplantation experiments in order not to affect the normal development of the embryos and being able, in parallel, to assay the effect of the compound over the injected cells. Apart from that, the mortality assayed in the toxicity assays supports the concentration obtained in the NOEC, with a low mortality of the embryos when they are incubated with JHOR11 (Figure 13 and Figure 14).
Wild-type zebrafish were housed in 30 L tanks within a water recirculation system under controlled physicochemical conditions: pH 7–7.5, temperature 26 ± 2 °C, conductivity 600 µS/cm and light/dark photoperiod of 14/10 h. The adult fish were fed Gemma Micro 300 (Skretting) twice a day. Fertilized eggs were collected after natural spawning and stored in Petri dishes for 48 h until being injected, or 72 h until being exposed to different concentrations of ruthenium compounds.
At 72 h post-fertilization (hpf), the embryos were exposed to increasing concentrations of two ruthenium compounds to determine toxicological estimates: LC50 with no observed effect concentration (NOEC) and lowest observed effect concentration (LOEC). The acute toxicity assessment of the compounds was performed following the standards of the OECD Test Guideline Program.
The embryos were individually transferred to 96-well plates containing 100 µL of each desired concentration. The plates were then placed in an incubator with a temperature of 26 °C and a photoperiod of 14 h of light and 10 h of darkness. The duration of the experiment was 96 h, and observations were made every 24 h recording the four lethal effects indicated by the OECD: embryo coagulation, absence of somite formation, absence of separation of the yolk tail and absence of heartbeat. All compounds were dissolved with dimethylsulfoxide (DMSO) with a final concentration of 1%. In each test, seven concentrations were analyzed for each compound, these being: JHOR10 (10, 20, 30, 40, 50, 55, 60 µM) and JHOR11 (50, 80, 100, 140, 200, 300, 400 µM).
For the evaluation of toxicity, the mortality data were analyzed by probit analysis with the ToxRat software (ToxRat Solutions. 2003. ToxRat®. Software for the statistical analysis of biotests. Alsdorf, Germany).

[5] = Stability in DMSO-d6-D2O solution by 1H NMR; assay type: physicochemical; conditions: DMSO-d6-D2O 3:7 (v/v), 110 mM chloride
Experimental: To evaluate the stability of complexes in a cell culture medium, powdered complexes were first solubilized in DMSO and then immediately in DMEM, in order to guarantee that no more than 0.1% (v/v) DMSO was present in the medium. […] In addition, the stability of the complexes in solution was investigated by ^1H NMR spectroscopy. The ruthenium complexes were dissolved in DMSO-d6-D2O, in a 3:7 ratio (v/v) with a 110 mM chloride concentration, and the ^1H NMR spectra was recorded immediately and after 48 h. […] This observation is in agreement with the M–Cl aquation processes described for several metallic compounds, such as cisplatin [23]. After 48 h, the ^1H NMR spectrum of JHOR10 was unchanged.
The stability of complexes was evaluated in DMEM (Dulbecco’s modified Eagle’s medium). Powdered complexes JHOR10 and JHOR11 were solubilized in DMSO and then immediately diluted in DMEM without phenol red (Thermo Fisher Scientific, Waltham, MA, USA) to a final concentration of 100 µM, assuring that the final concentration of DMSO was not higher than 0.1% (v/v). The UV-visible spectrum was measured after an incubation at 37 °C for 24 or 48 h (DMEM) in a wavelength range between 260 and 800 nm, using a quartz cuvette with 1 cm path length. A total of 2 mg of each compound was dissolved in DMSOd6-D2O 3:7 (v/v) 110 mM chloride concentration (NaCl), and the ^1H NMR were recorded at 0 h and 48 h on a Bruker Avance III 400 MHz.

A2780 cells = experiment: Cell cycle analysis (PI staining); assay type: cell-based, human; conditions: A2780 synchronized with thymidine; IC50 of JHOR11 or 0.1 µM doxorubicin; 5-32 h, relative to DMSO
Experimental: To understand if the complex also presents a cytostatic effect, the cell cycle of A2780 cells was analyzed by DNA staining with PI, after double synchronization with thymidine at the S phase.
The cell cycle analysis was performed by DNA staining with PI according to procedures previously described with few modifications. A2780 cells were seeded in 6-well plates in a cell density of 4 × 10^5 cells/well and the cell cycle was synchronized in the S-phase by double blocking with 2 mM thymidine. […] After 5 h, 9 h, 24 h or 32 h, cells were detached, fixed with 80% (v/v) ethanol, incubated with 50 mg/mL RNase A (NZYtech, Lisbon, Portugal) and stained with […] PI (Thermo Fisher Scientific). The fluorescence of each sample was analyzed in an Attune acoustic focusing cytometer and respective software (Thermo Fisher Scientific).

N.N.[Cl][Pt][Cl] [Cisplatin, reference compound]
IC50 [1]: 15.6 ± 5.3 µM | IC50 [2]: 1.9 ± 0.2 µM

Cc1ccc(C(C)C)cc1.O=C1C(=O)c2cccnc2-c2ncccc21.O=S(=O)([O-])C(F)(F)F.[Cl][Ru+] [JHOR10, [Ru{p-C6H4(Me)(iPr)}{(Dione)Cl][CF3SO3]]
IC50 [3]: > 50 µM | IC50 [4]: > 50 µM | LC50 (zebrafish embryos): 29.8 µM | LOEC (Lowest Observed Effect Concentration) (zebrafish embryos): 20.00 µM | NOEC (No Observed Effect Concentration) (zebrafish embryos): 10.00 µM | IC50 [1]: 25.7 ± 1.3 µM | IC50 [2]: 5.3 ± 0.3 µM | stability in solution by 1H NMR after 48 h ([5]; 48 h): unchanged | stability in solution by 1H NMR at t = 0 h ([5]; t = 0 h): new sets of resonances appeared

COc1cccc2c1C(=O)c1c(O)c3c(c(O)c1C2=O)C[C@@](O)(C(=O)CO)C[C@@H]3O[C@H]1C[C@H](N)[C@H](O)[C@H](C)O1 [doxorubicin, reference compound]
cell cycle effect (A2780 cells): cell cycle arrest at G2/M phase
